ChEMBL document CHEMBL1155191, “Simple dihydrosphyngosine analogues with potent activity against MDR-Mycobacterium tuberculosis” (2009)
In brackets after ≈: the same amount, converted by molar mass.

What was measured:
Type in all cases: functional
[1] = tested on: Mycobacterium tuberculosis; experiment: Antimycobacterial activity against Mycobacterium tuberculosis CIB99 after 5 to 7 days by microplate alamar blue assay
[2] = tested on: Mycobacterium tuberculosis; experiment: Antimycobacterial activity against Mycobacterium tuberculosis H37Rv ATCC 27294 after 5 to 7 days by microplate alamar blue assay
[3] = tested on: Mycobacterium tuberculosis; experiment: Ratio of ethambutol MIC to compound MIC for Mycobacterium tuberculosis CIB99
[4] = tested on: Mycobacterium tuberculosis; experiment: Ratio of ethambutol MIC to compound MIC for Mycobacterium tuberculosis H37Rv ATCC 27294

Row | SMILES | MIC [1] [µM] | MIC [2] [µM] | Ratio [3] | Ratio [4]
1 | CCCCCCCCCCCCCCC(CO)NC(=O)OC(C)(C)C (stereo not given) | 84 (≈ 30 µg/mL) | 84 (≈ 30 µg/mL) | >5 | 0.12
2 | CCCCCCCCCCCCCCC(CN(CC(=O)OCC)CC(=O)OCC)NC(=O)OC(C)(C)C (stereo not given) | 59 (≈ 31.2 µg/mL) | 59 (≈ 31.2 µg/mL) | >2.7 | 0.17
3 | CCCCCCCCCCCCCCC(CNCC)NC(=O)OC(C)(C)C (stereo not given) | 32 (≈ 12.3 µg/mL) | 32 (≈ 12.3 µg/mL) | >4.9 | 0.3
4 | CCCCCCCCCCCCCCC(CN(CC)CC)NC(=O)OC(C)(C)C (stereo not given) | 15.2 (≈ 6.27 µg/mL) | 15.2 (≈ 6.27 µg/mL) | >10 | 0.65
5 | CCCCCCCCCCCCCCC(CNC(=O)CCCC(=O)O)NC(=O)OC(C)(C)C (stereo not given) | 133 (≈ 62.6 µg/mL) | 133 (≈ 62.6 µg/mL) | >1.2 | 0.07
6 | CCCCCCCCCCCCCCC(N)CN (stereo not given) | 12.6 (≈ 3.23 µg/mL) | 12.6 (≈ 3.23 µg/mL) | >12 | 0.8
7 | CCCCCCCCCCCCCCC(COCc1ccccc1)NCC(=O)OCC (stereo not given) | 72 (≈ 31.2 µg/mL) | 72 (≈ 31.2 µg/mL) | >2.2 | 0.13
8 | CCCCCCCCCCCCCCC(N)CO (stereo not given) | 49 (≈ 12.6 µg/mL) | 24 (≈ 6.18 µg/mL) | >16 | 0.41
9 | CCCCCCCCCCCCCCC(COCc1ccccc1)NC(=O)CCC(=O)O (stereo not given) | 140 (≈ 62.7 µg/mL) | 140 (≈ 62.7 µg/mL) | >1.1 | 0.07
10 | CCCCCCCCCCCCCCC(N)COCc1ccccc1 (stereo not given) | 3.6 (≈ 1.25 µg/mL) | 3.6 (≈ 1.25 µg/mL) | >43 | 2.8
11 | CCCCCCCCCCCCCCC(COCc1ccccc1)N(CC)CC (stereo not given) | 3.1 (≈ 1.25 µg/mL) | 3.1 (≈ 1.25 µg/mL) | >50 | 3.2
12 | CCCCCCCCCCCCCCC(CO)N(CC)CC (stereo not given) | 40 (≈ 12.5 µg/mL) | 20 (≈ 6.27 µg/mL) | >3.9 | 0.5
13 | CCCCCCCCCCCCCCC(O)CNCc1ccccc1 (stereo not given) | 72 (≈ 25 µg/mL) | 36 (≈ 12.5 µg/mL) | >2.2 | 0.28
14 | CCCCCCCCCCCCCCC(O)CNC1CCCCC1 (stereo not given) | 11 (≈ 3.74 µg/mL) | 33 (≈ 11.2 µg/mL) | >14 | 0.3
15 | CCCCCCCCCCCCCCC(N)CN(CC)CC (stereo not given) | 8 (≈ 2.5 µg/mL) | 4 (≈ 1.25 µg/mL) | >19 | 2.5
16 | CCCCCCCCCCCCCCC(CN)NC(=O)OC(C)(C)C (stereo not given) | 30 (≈ 10.7 µg/mL) | 30 (≈ 10.7 µg/mL) | >5.2 | 0.3
17 | CCCCCCCCCCCCCCC(COCc1ccccc1)NC(=O)CCCC(=O)O (stereo not given) | 68 (≈ 31.4 µg/mL) | 68 (≈ 31.4 µg/mL) | >2.3 | 0.14
18 | CCCCCCCCCCCCCCC(COCc1ccccc1)NCC (stereo not given) | 16.6 (≈ 6.24 µg/mL) | 16.6 (≈ 6.24 µg/mL) | >9.5 | 0.6
19 | CC[C@@H](CO)NCCN[C@@H](CC)CO [ETHAMBUTOL] | > 158 | 9.9 (≈ 2.02 µg/mL) | 1 | 1
20 | CO[C@H]1/C=C/O[C@@]2(C)Oc3c(C)c(O)c4c(O)c(c(/C=N/N5CCN(C)CC5)c(O)c4c3C2=O)NC(=O)/C(C)=C\C=C\[C@H](C)[C@H](O)[C@@H](C)[C@@H](O)[C@@H](C)[C@H](OC(C)=O)[C@@H]1C [RIFAMPIN] | > 2.43 | 0.152 (≈ 0.125 µg/mL) | 65 | 650
